Active and inactive are the calls of the source.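 The calls were made as follows: active = fitted curve reaches 40% growth rescue activation at or below the top valid tested concentration; inconclusive = flat fit between 30 and 70%, or poor fit quality; inactive = activity opposite to the expected rise, and the rest.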
Assays:
[1] = tested on: S. cerevisiae alpha-synuclein toxicity rescue, OD600 growth, 24 h; test: yeast growth restoration under alpha-synuclein stress, dose response, S. cerevisiae, OD600, dry powder (AID 602279)
[2] = as above; conditions: S. cerevisiae alpha-synuclein toxicity rescue, OD600 growth, 24 h; at 26 µM (top of the series)

Row | Compound | AC40 [1] | growth rescue activation [2]
1 | Fc1cc(NCc2ccccc2)nc(NCc2ccccc2)n1 | > 26 µM (inactive) | –
2 | O=c1c2ccccc2[nH]c(=S)n1CCC1=CCCCC1 | – | 18.9% (inactive)
3 | Cc1ccccc1CSc1nsc(N)n1 | > 26 µM (inactive) | –
4 | CC(C)c1ccc(C2NC(=O)c3ccccc3O2)cc1 (centres undefined) | > 26 µM (inactive) | –

— PubChem BioAssay AID602279 (Broad Institute, 2012)
